The source of these data is patent US20100233241A1, “OPHTHALMIC DRUG DELIVERY SYSTEM AND APPLICATIONS” (VISTA SCIENTIFIC LLC, priority 2009, published 2010).

Series [1] can be described thus: ciprofloxacin drug release from ocular device in Purilens Plus buffer, UV spectroscopy. Type of series: physicochemical. As for the experimental part:
The following details the method utilized to monitor ciprofloxacin drug release from an ocular device of this example. Solutions of ciprofloxacin, in a concentration range of 5 ppm to 1,000 ppm, were prepared in Purilens Plus buffer (Purilens Plus is a preservative-free pH-balanced saline solution manufactured by The Lifestyle Company). A UV scanning spectrophotometer was utilized to generate a calibration curve of peak absorbance (λmax=272 nm) versus concentration, in gm/100 ml, of ciprofloxacin.
A device from this example weighing between 100 and 150 mg was placed in a 4 ml vial. To the vial was added 3.0 ml of Purilens Plus buffer. After 24 hours at 37° C., the sample was removed and placed in another 4 ml vial and covered with 3.0 ml of fresh Purilens Plus buffer. The 24-hour release vial was capped, labeled and held for analysis. This procedure was repeated four more times to obtain 1-, 2-, 3-, 4- and 5-day release data. The sampling interval was then expanded to every 3 to 5 days and so on. The release study was carried out for a total of 60 days.
The drug release samples were analyzed by UV spectroscopy and absorbance readings converted to weight of drug via the calibration curve.

Series [2] in a line: timolol drug release from ocular device in Unisol 4 buffer, UV spectroscopy. Type of series: physicochemical. The conditions noted are these: Example 11 polymer matrix with dissolved timolol free base; release study 90 days, 37° C., Unisol 4 buffer (FIG. 16). As for the experimental part:
The following details the method utilized to monitor timolol drug release from an ocular device of this example. Solutions of timolol maleate, in a concentration range of 5 ppm to 1,000 ppm, were prepared in Unisol® 4 buffer (Unisol® 4 is a preservative-free pH-balanced saline solution manufactured by Alcon Laboratories). A UV scanning spectrophotometer was utilized to generate a calibration curve of peak absorbance (λmax=294 nm) versus concentration, in gm/100 ml, of timolol maleate. A calibration curve for timolol free base was then generated. A device weighing between 100 and 150 mg was placed in a 4 ml vial. To the vial was added 2.0 ml of Unisol® 4 buffer. After 24 hours at 37° C., the sample was removed and placed in another 4 ml vial and covered with 2.0 ml of fresh Unisol® 4 buffer. The 24-hour release vial was capped, labeled and held for analysis. This procedure was repeated four more times to obtain 1-, 2-, 3-, 4- and 5-day release data. The sampling interval was then expanded to every 3 to 5 days and so on. The release study was carried out for a total of 90 days. The drug release samples were analyzed by UV spectroscopy and absorbance readings converted to weight of drug via the calibration curve. A plot of cumulative weight, in micrograms, of drug released versus time was generated.

`O=C(O)c1cn(C2CC2)c2cc(N3CCNCC3)c(F)cc2c1=O` [ciprofloxacin]: in series [1] (60 days release study, 37° C., Purilens Plus buffer, Example 12 hydrogel device, initial loading about 8.67 mg), the “amount of ciprofloxacin released” value was found to be 4.74 mg. The “ciprofloxacin released, share of initial loading” value in series [1] (in the 60 days, 4.74 mg of about 8.67 mg loading) was 55%. As to `CC(C)(C)NC[C@H](O)COc1nsnc1N1CCOCC1` [timolol], the “timolol release from device” value in series [2] is “releases timolol in a controlled manner over several months”.
